The subject of assay [1] is Human immunodeficiency virus 1. The experiment in a line: Antiviral activity against indinavir-resistant HIV1 NL4-3. Format: functional, organism-based. Particulars: Human immunodeficiency virus 1, NL4-3.
Assay [2] deals with Human immunodeficiency virus 1. The experiment in a line: Antiviral activity against saquinavir-resistant HIV1 NL4-3. The class given is functional, organism-based. Particulars: Human immunodeficiency virus 1, NL4-3.
For assay [3], the system named is Human immunodeficiency virus 1. The experiment in a line: Antiviral activity against lopinavir-resistant HIV1 NL4-3. Format: functional, organism-based. As to conditions: Human immunodeficiency virus 1, NL4-3.
Assay [4] deals with Human immunodeficiency virus 1. The experiment in a line: Antiviral activity against wild type HIV1 isolate ERS104pre infected in PHA-stimulated human PBMC assessed as inhibition of p24 […] protein production. Particulars: Human immunodeficiency virus 1, isolate ERS104pre. The class given is functional, organism-based.
In assay [5] the test system is Human immunodeficiency virus 1. In words: Antiviral activity against multidrug-resistant HIV1 isolate B infected in PHA-stimulated human PBMC assessed as inhibition of p24 […] protein production. Format: functional, organism-based. Particulars: Human immunodeficiency virus 1, isolate B.
Assay [6] has as its system Human immunodeficiency virus 1. In words: Antiviral activity against multidrug-resistant HIV1 isolate C infected in PHA-stimulated human PBMC assessed as inhibition of p24 […] protein production. The class given is functional, organism-based. Particulars: Human immunodeficiency virus 1, isolate C.
Assay [7] has as its system Human immunodeficiency virus 1. The experiment in a line: Antiviral activity against multidrug-resistant HIV1 isolate G infected in PHA-stimulated human PBMC assessed as inhibition of p24 […] protein production. Particulars: Human immunodeficiency virus 1, isolate G. The class given is functional, organism-based.
Assay [8] relates to Human immunodeficiency virus 1. The experiment in a line: Antiviral activity against multidrug-resistant HIV1 isolate TM infected in PHA-stimulated human PBMC assessed as inhibition of p24 […] protein production. The class given is functional, organism-based. Particulars: Human immunodeficiency virus 1, isolate TM.
Assay [9] has as its system Human immunodeficiency virus 1. The experiment in a line: Antiviral activity against multidrug-resistant HIV1 isolate MM infected in PHA-stimulated human PBMC assessed as inhibition of p24 […] protein production. Format: functional, organism-based. As to conditions: Human immunodeficiency virus 1, isolate MM.
Assay [10] relates to Human immunodeficiency virus 1. The experiment in a line: Antiviral activity against multidrug-resistant HIV1 isolate JSL infected in PHA-stimulated human PBMC assessed as inhibition of p24 […] protein production. Format: functional, organism-based. Particulars: Human immunodeficiency virus 1, isolate JSL.
The test system of assay [11] is Human immunodeficiency virus 1. The experiment in a line: Selectivity ratio of IC50 for multidrug-resistant HIV1 isolate B to IC50 for wild type HIV1 isolate ERS104pre. Format: functional.
In assay [12] the test system is Human immunodeficiency virus 1. In words: Selectivity ratio of IC50 for multidrug-resistant HIV1 isolate C to IC50 for wild type HIV1 isolate ERS104pre. The class given is functional.
For assay [13], the system named is Human immunodeficiency virus 1. The experiment in a line: Selectivity ratio of IC50 for multidrug-resistant HIV1 isolate G to IC50 for wild type HIV1 isolate ERS104pre. Format: functional.
Assay [14] relates to Human immunodeficiency virus 1. In words: Selectivity ratio of IC50 for multidrug-resistant HIV1 isolate TM to IC50 for wild type HIV1 isolate ERS104pre. Format: functional.
For assay [15], the system named is Human immunodeficiency virus 1. The experiment in a line: Selectivity ratio of IC50 for multidrug-resistant HIV1 isolate MM to IC50 for wild type HIV1 isolate ERS104pre. The class given is functional.
Assay [16] deals with Human immunodeficiency virus 1. In words: Selectivity ratio of IC50 for multidrug-resistant HIV1 isolate JSL to IC50 for wild type HIV1 isolate ERS104pre. The class given is functional.

Where only a bound is given, the exact number is not on record here.

What is called IC50 is the concentration that inhibits the measured activity by half.

Consider `COc1ccc2c(c1)OCCC=CCCCCN(C[C@@H](O)[C@H](Cc1ccccc1)NC(=O)O[C@H]1CO[C@H]3OCC[C@H]31)S2(=O)=O`, for which the IC50 in [1], in assay [2] and in assay [3] was 20 nM each time.

For `Cc1cccc(C)c1OCC(=O)N[C@@H](Cc1ccccc1)[C@@H](O)C[C@H](Cc1ccccc1)NC(=O)[C@H](C(C)C)N1CCCNC1=O` [LOPINAVIR], the IC50 in assay [4] was 34 nM; in [5], above 1000 nM; in [6], above 1000 nM; in assay [7], 260 nM; in [8], above 1000 nM; in assay [9], above 1000 nM. In addition, the IC50 in assay [10] is above 1000 nM. Moreover, the “Ratio IC50” value in assay [11] was above 29; in [12], above 29; in [13] it was 8; in assay [14], above 29; in [15] it was above 29; in assay [16], above 29.

(Values after ChEMBL document CHEMBL1156053, “Design, synthesis, protein-ligand X-ray structure, and biological evaluation of a series of novel macrocyclic human immunodeficiency virus-1 protease inhibitors to combat drug resistance” (J Med Chem, 2009).)
